Measurements from BindingDB's records for patent US10696682 (G1 Therapeutics, 2020).

Molecular target: Cyclin-dependent kinase 2/G1/S-specific cyclin-E1 (Homo sapiens, UniProt P24941+P24864)
Experiment: Biological Activity Assay
Experimental: Kinase enzymatic reactions were performed in 384-well microplates using a 12-channel Caliper LabChip instrument as a detection device. […] As substrate and product are separated, two peaks of fluorescence are observed. Change in the relative fluorescence intensity of the substrate and product peaks is the parameter measured, reflecting enzyme activity. In the presence of an inhibitor, the ratio between product and substrate is altered. […] Potential inhibitor compounds (as HCl salts) were tested using 12-point dose response curves in single point at the Km for ATP.

SMILES | IC50 [µM]
CCC(C)[C@H]1CN(C)C(=O)C2=CC3C=NC(Nc4ccc(N5CCNCC5)cn4)=NC3N21 (some centres undefined) [US10696682, Compound 19] | > 100
CN1CC2(CCCC2)N2C(=CC3C=NC(Nc4ccc(N5CCNCC5)cn4)=NC32)C1=O (centres undefined) [US10696682, Compound 31] | > 100
CC(C)CC1CN(C)C(=O)C2=CC3C=NC(Nc4ccc(N5CCNCC5)cn4)=NC3N21 (centres undefined) [US10696682, Compound 47] | > 100
CN1CCN(c2ccc(NC3=NC4C(C=N3)C=C3C(=O)N[C@H]5CCC[C@@H]5N34)nc2)CC1 (some centres undefined) [US10696682, Compound 48] | > 100

The remaining lines, values ahead:

IC50 [µM] | SMILES
> 100 | CN1CCN2C(=CC3C=NC(Nc4ccc(N5CCNCC5)cn4)=NC32)C1=O (centres undefined) [US10696682, Compound 5]
> 100 | CC(C)C1CNC(=O)C2=CC3C=NC(Nc4ccc(N5CCN(C)CC5)cn4)=NC3N21 (centres undefined) [US10696682, Compound 7]
> 100 | CC(C)[C@H]1CN(C)C(=O)C2=CC3C=NC(Nc4ccc(N5CCNCC5)cn4)=NC3N21 (some centres undefined) [US10696682, Compound 11]
> 100 | CC(C)C[C@H]1CN(C)C(=O)C2=CC3C=NC(Nc4ccc(N5CCNCC5)cn4)=NC3N21 (some centres undefined) [US10696682, Compound 15]
> 100 | CCC(C)[C@H]1CN(C)C(=O)C2=CC3C=NC(Nc4ccc(N5CCN(C)CC5)cn4)=NC3N21 (some centres undefined) [US10696682, Compound 18]
